Assay results as given in patent US10647680B2, “Urea compound, preparation method therefor and medical use thereof” (Ancureall Pharmaceutical (Shanghai) Co., Ltd., priority 2016, dated 2020).

Tests used:
[1] = test system: HCT116 (KRAS G13D mutant type); assay: In vitro growth inhibition (GI50), HCT116; format: cell-based; settings: Homo sapiens, HCT-116
From the text: (§1) Tumor cell line is an effective cell model for studying the inhibition of tumor cell growth or proliferation in vitro. In the present invention, a representative tumor cell line was selected to determine the cell growth inhibition activity of the present compound. All cell lines used were from ATCC, DSMZ, and the Cell Bank of the Chinese Academy of Sciences. Cell culture conditions and methods were in accordance with the requirements of each cell line. Cells were subcultured in vitro for no more than 3 passages each time, and as required, single-clone purification and identification of cell lines could be carried out.
(§2) The cell culture media used were RPMI1640 (Gibco), MEM (Gibco), McCOY'S5A (Gibco), and IMDM (Gibco). The complete medium was prepared by supplement with 5˜20% fetal calf serum (Gibco), 1% double-antibiotics (10000 units/mL penicillin and 10000 units/mL), 2 mM glutamine or 1 mM sodium pyruvate, respectively.
(§3) Human large cell lung cancer cell NCI-H460 (KRAS […] mutant type, ATCC), human non-small cell lung cancer cell line H1299 (NRAS Q61K mutant type, ATCC), human melanoma cell line A375 (BRAF V600E mutant type, Shanghai Cell Bank of Chinese Academy of Sciences), human colon cancer cell line HCT116 (KRAS G13D mutant type, Shanghai Cell Bank, Chinese Academy of Sciences) were cultured in a complete medium of 1×RPMI1640 (10% FBS), respectively. Human non-small cell lung cancer cells A549 (KRAS G12S mutant type, Shanghai Cell Bank, Chinese Academy of Sciences) were cultured in a complete medium of 1× Ham's supplemented with 10% FBS, 1% double antibody, and 2 mM glutamine.
(§4) Adherent cells were digested with 0.25% pancreatin-EDTA (Gibco). The suspension cells were collected by centrifugation. The supernatant was discarded and the cell pellet was resuspended and counted. Different cell concentrations (5˜10×10^4 cells/mL) were prepared according to the growth cycle of each cell line and then seeded on a 96-well plate (Corning), 100 μL/well. The cells were incubated overnight at 37° C., 5% CO2. The compounds were added to the cells on the second day with 2 wells in parallel. The final concentration of organic solvent shall not exceed 1%. The cells were continually incubated for 3 to 5 days, and then subjected to MTT assay.
(§5) The compound of the present invention and the control compound were dissolved in DMSO (Sigma) respectively, with the purity of more than 98%. The compound was stored in a concentration of 10 mM at −20° C. and diluted to 2- or 10-fold series prior to use.
(§6) Dojindo CCK8 reagent kit was used as MTT assay. THERMO […] FC meter was used as microplate reader.
(§7) For adherent cells, culture medium was removed and immediately replaced with the fresh prepared medium which contains 10% CCK8 reagent (100 μL/well). For the suspension cells, CCK8 was directly added to 10% of the final concentration. The cells were continually incubated for 1˜4 h. When a dark yellow color could be observed in the solvent control wells, the absorbance value at OD450 nm was measured and the cell growth rate was calculated according to the following formula: Cell Growth Rate (%)=100*(T−T0)/(C−T0) T=optical density of drug treatment cell well—optical density of blank control well; T0=optical density of cell well before drug treatment—optical density of blank control well; C=optical density of cell well of solvent control group—optical density of blank control well. The concentration value of 50% inhibition of cell growth (GI50) was calculated according to the drug concentration and cell growth rate curve. The experiment was independently repeated 1˜3 times, and subject to biological statistical analysis. 4. Experimental Results
(§8) Tumor cell growth inhibition test was performed by selecting representative compounds (compounds 4, 11, 12, 16, 27, 68, 71, 77, 79, 89 and 116 of the present invention). The initial concentration of the compound was 5,000 nM, then it was serially diluted by 2-fold or 10-fold to 0.01 nM. […]

[2] = test system: tumor cells with abnormal expressions of EGFR, HER2/ERBB2, FGFR1, RAS, BRAF, cMET, and ALK genes; assay: In vitro growth inhibition of different tumor cells (summary over the panel); format: cell-based, human; settings: GI50 value in the micro-molar range
From the text: Human epidermal cancer cell line A431 (EGFR WT, amplification and high expression, from Shanghai Cell Bank of Chinese Academy of Sciences and ATCC), human lung cancer cell line NCI-H292 (EGFR WT, purchased from Shanghai Cell Bank of Chinese Academy of Sciences), NSCLC cell lines PC-9 and HCC827 (EGFR exon19 E746-A750 deletion, two cell lines are sensitive to the first-generation EGFR PTK inhibitor), NSCLC cell line NCI-H1975 (EGFR L858R/T790M and the first-generation EGFR inhibitor resistance, ATCC) were cultured with 1×RPMI1640 complete medium (supplement with 10% FBS), respectively.
Human gastric cancer cell line NCI-N87 (HER2/ErbB2 amp, ATCC), human breast cancer cell line HCC1954 (HER2/ErbB2 amp, ATCC) and ZR-75-30 (HER2/ErbB2 amp, ATCC), human adenocarcinoma cell line AU565 (HER2/ErbB2 amp, ATCC), human lung squamous cell carcinoma cell line NCI-H2170 (HER2/ErbB2 amp, ATCC), human bronchioalveolar adenocarcinoma cell line NCI-H1781 (HER2/ErbB2 Ins G776V,C mutant type, ATCC) were cultured with a 1×RPMI1640 complete medium (10% FBS), respectively. Human lung adenocarcinoma cell line Calu-3 (HER2/ErbB2 amp, ATCC) was cultured with 1×MEM, 10% FBS, 1% double antibody, 1% NEAA (Gibco), 2 mM glutamine and 1 mM sodium pyruvate. The human breast cancer cell line SK-BR-3 (HER2/ErbB2 amp, ATCC) was cultured with a McCOY'S5A complete medium (10% FBS).
The human gastric cancer cell line MKN-45 (c-MET amp, ATCC) and the non-small cell lung cancer cell line NCI-H1993 (c-MET amp, ATCC) were cultured in complete medium comprising 1×RPMI1640 and 10% FBS, respectively.
Human non-small cell lung cancer cell line NCI-H2228 (expressing EML4-ALK fusion gene, ATCC) and human anaplastic large cell lymphoma cell line Karpas-299 (expressing NPM-ALK fusion gene, ATCC) were cultured in complete medium comprising 1×RPMI1640 (10% FBS), respectively. Neuroblastoma cell line SH-SY5Y (expressing ALK F1174L mutant protein, Shanghai Cell Bank, Chinese Academy of Sciences) was cultured in MEM complete medium (1×MEM, 10% FBS, 1% NEAA, 1 mM sodium pyruvate).
Human non-small cell lung cancer cell NCI-H1581 (FGFR1 amp, ATCC) is an FGFR1 gene amplified/overexpressed tumor cell line. It was cultured in complete medium comprising 1×RPMI1640 with 10% FBS.
as §3, §4, §5
Dojindo CCK8 reagent kit was used as MTT assay. THERMO […] FC meter was used as microplate reader. […]

[3] = test system: A375 (BRAF V600E mutant type); assay: In vitro growth inhibition (GI50), A375; format: cell-based; settings: Homo sapiens, A-375
From the text: as §1, §2, §3, §4, §5, §6, §7, §8

GI50 [1]	GI50 [3]	Compound	inhibition effect on growth of tumor cells with abnormal expressions of EGFR, HER2/ERBB2, FGFR1, RAS, BRAF, cMET, and ALK genes [2]
> 2500 nM	> 2500 nM	CC(C)(C)c1cc(NC(=O)Nc2ccc(-n3cnc4ccc(OCCN5CCOCC5)cc43)cc2)no1 [Compound 27, 1-(5-tert-butyl-isoxazol-3-yl)-3-{4-[6-(2morpholin-4-yl-ethoxyl)-benzimidazol-1-yl]-phenyl}-urea]	no significant inhibition effect
> 2500 nM	> 2500 nM	CC(C)(C)c1cc(NC(=O)Nc2ccc(-n3cnc4cc(OCCO)ccc43)cc2)no1 [Compound 11, 1-(5-tert-butyl-isoxazol-3-yl)-3-{4-[5-(2-hydroxy-ethoxyl)-benzimidazol-1-yl]-phenyl]-urea]	
> 2500 nM	> 2500 nM	CC(C)(C)c1cc(N)n(C(=O)Nc2ccc(-n3cnc4ccccc43)cc2)n1 [Compound 116, 5-amino-3-tert-butyl-pyrazol-1-carboxylic acid (4-benzimidazol-1-yl-phenyl)-amide]	no significant inhibition effect
> 2500 nM	> 2500 nM	CC(C)(C)c1cc(NC(=O)Nc2ccc(-n3cnc4cc(OCCN5CCOCC5)ccc43)cc2)no1 [Compound 16, 1-(5-tert-butyl-isoxazol-3-yl)-3-{4-[5-(2-morpholin-4-yl-ethoxyl)-benzimidazol-1-yl]-phenyl}-urea]	no significant inhibition effect
> 2500 nM	> 2500 nM	CC(C)(C)c1cc(NC(=O)Nc2ccc(-n3cnc4ccccc43)cc2)[nH]n1 [Compound 68, 1-(4-benzimidazol-1-yl-phenyl)-3-(5-tert-butyl-2H-pyrazol-3-yl)-urea]	no significant inhibition effect
> 2500 nM	> 2500 nM	CC(C)(C)c1cc(NC(=O)Nc2ccc(-n3cnc4cc(OCCN5CCOCC5)ccc43)cc2)[nH]n1 [Compound 89, 1-(5-tert-butyl-2H-pyrazol-3-yl)-3-{4-[5-(2-morpholin-4-yl-ethoxyl)-benzimidazol-1-yl]-phenyl}-urea]	no significant inhibition effect
> 2500 nM	> 2500 nM	COc1ccc2c(c1)ncn2-c1ccc(NC(=O)Nc2cc(C(C)(C)C)n[nH]2)cc1 [Compound 71, 1-(5-tert-butyl-2H-pyrazol-3-yl)-3-[4-(5-methoxyl-benzimidazol-1-yl)-phenyl]-urea]	no significant inhibition effect
> 2500 nM	> 2500 nM	CC(C)(C)c1cc(NC(=O)Nc2ccc(-n3cnc4cc(O)ccc43)cc2)no1 [Compound 4, 1-(5-tert-butyl-isoxazol-3-yl)-3-[4-(5-hydroxy-benzimidazol-1-yl)-phenyl]-urea]	
> 2500 nM	> 2500 nM	CC(C)(C)c1cc(NC(=O)Nc2ccc(-n3cnc4cc(OCCO)ccc43)cc2)[nH]n1 [Compound 79, 1-(5-tert-butyl-2H-pyrazol-3-yl)-3-{4-[5-(2-hydroxy-ethoxyl)-benzimidazol-1-yl]-phenyl]urea]	

Compound	GI50 [1]	GI50 [3]	inhibition effect on growth of tumor cells with abnormal expressions of EGFR, HER2/ERBB2, FGFR1, RAS, BRAF, cMET, and ALK genes [2]
COCCOc1ccc2c(c1)ncn2-c1ccc(NC(=O)Nc2cc(C(C)(C)C)n[nH]2)cc1 [Compound 77, 1-(5-tert-butyl-2H-pyrazol-3-yl)-3-{4-[5-(2-methoxyl-ethoxyl)-benzimidazol-1-yl]-phenyl}-urea]	> 2500 nM	> 2500 nM	no significant inhibition effect
